# Reference: US7759526B2 (priority 2000, dated 2010)
# Entries after “also recorded” stand apart in the source; their conditions may differ.
# Legend:
# [1] = tested on: phenylbenzoquinone writhing; conditions: Formukong et al. 1988; cited from earlier work
# [2] = tested on: uptake of endocannabinoids into neuronal cells; assay: Uptake of endocannabinoids into neuronal cells; assay type: cell-based; conditions: preliminary data
# [3] = tested on: tetradecanoylphorbolacetable (TPA) induced erythema of mouse ear; conditions: application of a 100 μg/ml solution; Formukong et al. 1988; cited from earlier work
# CB2 = CB2 (Homo sapiens, UniProt P34972); conditions: cited from earlier work
# [4] = tested on: human HL-60 promyelecytic leukemia cells; assay: Apoptosis of HL-60 cells, Hoechst 33258 stain; assay type: cell-based; conditions: for % apoptosis / programmed cell death (apoptosis): HL-60; for % apoptosis: 24 h; for programmed cell death (apoptosis): dose dependent 0.1 μg/ml to 8 μg/ml
# Source text: The method used, namely determination by the fluorescent Hoechst 33258 stain, is described by T. R. Chen (Cell Res. 104, 255-262, 1977). A Table of results is appended in following Table D.
# [5] = tested on: arachidonic acid-induced swelling of the ear; assay: Arachidonic acid-induced ear inflammation in the mouse; assay type: in vivo
# Description: Mice (female Sabra) were treated with […] A′ A (in 5 μl EtOH) dispersed on the inner surface of one of the ears. The other ear was treated with 5 μl of EtOH. Ear swelling was assessed by measuring ear thickness with a dial thickness gauge (Mitutoyo, Japan) just before treatment and 30 min after A; A application. The drugs (40 mg/kg for the cannabinoids and 20 mg/kg for indomethacin) were injected i.p. 60 min before the A′ A treatment. *** indicates p<0.001.
# The effect of various doses of CBD-7-oic acid (3a) (Example 28), and of CBD-DMH-7-oic acid (3b) (Example 28) and of indomethacin (20 mg/kg) after arachidonic acid-induced swelling of the ear are shown in FIG. 2. The effects were measured over 75 min after the administration of arachidonic acid.
# (§1) Female Sabra mice (2 months old, Harlan-Sprague Dawley, Jerusalem) were used for a series of tests and for the assays for inflammation and peripheral pain. Groups of 5 mice were used in each experiment. Compounds 2a, 2b, 3a and 3b were dissolved in vehicle (ethanol:emulphor:saline=1:1:18) and injected intraperitoneally (i.p.) in volumes of 0.1 ml/10 g in mice as previously described (Hanus et al., 1999).
# Ear inflammation was measured by assessing ear tissue swelling after topical application of arachidonic acid. […] The opposite ear served as control (5 μl ethanol). Ear thickness was determined (in 0.01 mm units) every 15 min for 90 min starting immediately after arachidonic acid application using a dial thickness gauge (Mitutoyo, Japan).
# [6] = tested on: formalin-induced paw licking; assay: Formalin test for peripheral pain; assay type: in vivo, mouse; conditions: mice; 20 mg/kg; 5 min recorded 30 min after formalin (3.2%)
# Description: Thus mice injected with formalin (3.2% dissolved in saline) licked their paws 8±2 times over 5 min, recorded 30 min after the formalin administration.
# as §1
# Pain mediated by the peripheral nervous system, was tested in the ‘formalin test’ for cutaneous (peripheral) pain (Tjolson et al., 1992; Calignano et al., 1998; Jaggar et al, 1998). The compound tested (or vehicle) was injected i.p. Formalin (3.2% dissolved in saline) was injected s.c. in the plantar surface of the hind paw of a mouse (in 20 μl volumes) 90 min after the drug. Immediately after formalin administration nociception was assessed (every 5 min for 1 hr) by the number of times the animal licks for formalin-injected paw.
# [7] = Antianxiety and anticonvulsive effects (preliminary data)
# serum TNFα = assay: Serum TNFα in mice after ip injection of LPS; assay type: in vivo
# Description: This anti TNFα effect is also seen in vivo. High levels of TNFα appear in serum of mice after ip injection of 5 mg/kg/mouse lipopolysaccharide (LPS). […] At the lower dose of 0.5 mg/kg 80% suppression of TNFα level was observed. […] Thus 7-hydroxy-CBD (2a) in doses of 10 μg/kg i.p. suppressed serum TNFα in mice (30%).
# [8] = tested on: release of reactive oxygen intermediates by monocytic RAW 264.7 cells; assay: Zymosan-induced release of reactive oxygen intermediates, chemiluminescence; assay type: cell-based
# Source text: Table of results are attached in following Table C.
# (§2) The experimental methods used have been described in Gallily et al. (Eur. J. Pharmacol. 406, R5-R7, 2000), Avron and Gallily (J. Leukocyte Biol. 57, 264-268, 1995) and Gallily et al. (J. Pharmacol. Exp. Ther. 283, 918-924, 1997).
# [9] = tested on: TNFα production by Thioglycollate-elicited macrophages (TGMMΦ); assay: TNFα production by thioglycollate-elicited macrophages; assay type: cell-based, murine; conditions: TGMΦ; for % inhibition of TNFα titer: 24 hrs
# Description: (§3) The inhibition is dose dependent (10 μg-0.001 μg/ml). Tables of results are attached in following Tables A and B.
# as §2
# [10] = tested on: TNFα production by RAW 264.7 mouse monocytic cell line; assay: TNFα production by RAW 264.7 mouse monocytic cell line; assay type: cell-based; design: TNFα Titer S50: unit not given beside the values
# Description: as §3, §2
# CB1 = molecular target: T1, CB1 (Rattus norvegicus, UniProt P20272); conditions: previously described probe; cited from earlier work
# T1 construct: synaptosomal membranes prepared from rat brains; from tissue; host or cells: rat brain synaptosomal membranes
# [11] = cannabinoid 40 mg/kg i.p., compared with indomethacin 20 mg/kg i.p.
# [12] = cannabinoid 5 mg/kg, compared with indomethacin 20 mg/kg
# [13] = cannabinoid 80 mg/kg, compared with indomethacin 20 mg/kg
# Chain of CB2 (P34972 whole entry, species assumed): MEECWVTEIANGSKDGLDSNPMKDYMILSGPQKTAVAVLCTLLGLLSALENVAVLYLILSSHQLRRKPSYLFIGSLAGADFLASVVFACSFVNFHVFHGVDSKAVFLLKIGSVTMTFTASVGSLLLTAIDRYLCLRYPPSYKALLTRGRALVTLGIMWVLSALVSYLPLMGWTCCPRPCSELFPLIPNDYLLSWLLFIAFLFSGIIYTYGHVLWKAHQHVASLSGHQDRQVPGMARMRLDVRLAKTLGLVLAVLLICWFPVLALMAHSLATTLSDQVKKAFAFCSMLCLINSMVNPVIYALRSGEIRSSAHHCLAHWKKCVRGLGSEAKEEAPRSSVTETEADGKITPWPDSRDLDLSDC
# T1 sequence (P20272 whole entry): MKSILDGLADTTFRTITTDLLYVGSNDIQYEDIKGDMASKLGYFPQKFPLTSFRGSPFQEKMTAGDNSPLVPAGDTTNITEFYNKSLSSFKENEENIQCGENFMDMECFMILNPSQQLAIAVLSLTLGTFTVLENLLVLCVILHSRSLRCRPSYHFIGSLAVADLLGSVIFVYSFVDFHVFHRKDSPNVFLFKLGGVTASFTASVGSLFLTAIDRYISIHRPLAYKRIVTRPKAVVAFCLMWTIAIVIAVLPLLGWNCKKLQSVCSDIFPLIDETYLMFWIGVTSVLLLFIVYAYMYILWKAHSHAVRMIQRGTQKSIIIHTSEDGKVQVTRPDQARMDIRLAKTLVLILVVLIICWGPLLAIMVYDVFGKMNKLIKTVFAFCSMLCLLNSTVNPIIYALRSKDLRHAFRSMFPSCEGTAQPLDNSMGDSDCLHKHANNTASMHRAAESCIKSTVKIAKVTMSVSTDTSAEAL
compound,measurement,setting,value
"C=C(C)[C@@H]1CCC(C)=C[C@H]1c1c(O)cc(CCCCC)cc1O [CBD, Cannabidiol]",analgesic potency compared with aspirin,[1],much more potent than aspirin
same,uptake of endocannabinoids into neuronal cells,[2],prevent the uptake of endocannabinoids into neuronal cells
same,inhibition of the inflammation response,[3],92%
same,binding to cannabinoid receptor CB2,CB2,does not bind
same,% apoptosis,"[4]; 1 μg/ml, no irradiation",19%
same,% apoptosis,"[4]; 1 μg/ml, γ-irradiation 800 rad",28%
same,% apoptosis,"[4]; 4 μg/ml, no irradiation",33%
same,% apoptosis,"[4]; 4 μg/ml, γ-irradiation 800 rad",45%
same,% apoptosis,"[4]; 8 μg/ml, no irradiation",48%
same,% apoptosis,"[4]; 8 μg/ml, γ-irradiation 800 rad",85%
same,programmed cell death (apoptosis),[4],high rate of programmed cell death
same,"apoptosis, synergism with γ ray irradiation",[4]; HL-60 irradiated by γ ray (800 rad) and treated with cannabinoid,up to 85%
"C=C(C)[C@@H]1CCC(C)=C[C@H]1c1c(O)cc(C(C)(C)CCCCCC)cc1O [Compound 1b, CBD-DMH, reference compound]",uptake of endocannabinoids into neuronal cells,[2],prevent the uptake of endocannabinoids into neuronal cells
"C=C(C)[C@@H]1CCC(CO)=C[C@H]1c1c(O)cc(CCCCC)cc1O [Compound 2a, 7-Hydroxy CBD]",antiinflammatory effect on arachidonic acid-induced ear swelling,[5]; [11],less active than the potent antiinflammatory drug indomethacin
same,uptake of endocannabinoids into neuronal cells,[2],prevent the uptake of endocannabinoids into neuronal cells
same,"paw licking, late phase of formalin-induced pain behavior",[6],fully blocked the licking
same,antianxiety and anticonvulsive effects,[7],have antianxiety and anticonvulsive effects
same,suppression of serum TNFα,serum TNFα; 10 μg/kg i.p.,30%
"C=C(C)[C@@H]1CCC(CO)=C[C@H]1c1c(O)cc(C(C)(C)CCCCCC)cc1O [Compound 2b, 7-Hydroxy CBD-DMH]",antiinflammatory effect on arachidonic acid-induced ear swelling,[5]; [11],less active than the potent antiinflammatory drug indomethacin
same,uptake of endocannabinoids into neuronal cells,[2],prevent the uptake of endocannabinoids into neuronal cells
same,"paw licking, late phase of formalin-induced pain behavior",[6],fully blocked the licking
same,antianxiety and anticonvulsive effects,[7],have antianxiety and anticonvulsive effects
"C=C(C)[C@@H]1CCC(C(=O)O)=C[C@H]1c1c(O)cc(CCCCC)cc1O [Compound 3a, 7-Nor-carboxy CBD]",antiinflammatory effect on arachidonic acid-induced ear swelling,[5]; [12],less active than 3b
same,antiinflammatory effect on arachidonic acid-induced ear swelling,[5]; [11],essentially equivalent to that of indomethacin
same,antiinflammatory effect on arachidonic acid-induced ear swelling,[5]; [13],less effective than indomethacin
same,"paw licking, late phase of formalin-induced pain behavior",[6],fully blocked the licking
same,antianxiety and anticonvulsive effects,[7],have antianxiety and anticonvulsive effects
same,Cherniluminescense peak,[8]; Zymosan + 4 μg/ml,4139
same,Inhibition % of ROI release,[8]; Zymosan + 4 μg/ml,31%
same,Cherniluminescense peak,[8]; Zymosan + 10 μg/ml,1041
same,Inhibition % of ROI release,[8]; Zymosan + 10 μg/ml,83%
"C=C(C)[C@@H]1CCC(C(=O)O)=C[C@H]1c1c(O)cc(C(C)(C)CCCCCC)cc1O [Compound 3b, 7-Nor-carboxy CBD DMH]",antiinflammatory effect on arachidonic acid-induced ear swelling,[5]; [12],fully suppressed the inflammation; also recorded: as potent as indomethacin
same,antiinflammatory effect on arachidonic acid-induced ear swelling,[5]; [11],essentially equivalent to that of indomethacin
same,antiinflammatory effect on arachidonic acid-induced ear swelling,[5]; [13],less effective than indomethacin
same,"paw licking, late phase of formalin-induced pain behavior",[6],fully blocked the licking
same,antianxiety and anticonvulsive effects,[7],have antianxiety and anticonvulsive effects
same,suppression of TNFα level in serum,serum TNFα; 0.5 mg/kg simultaneously with LPS,80%
same,suppression of serum TNFα level,serum TNFα; 0.5 and 5 mg/kg simultaneously with LPS 5 mg/kg ip,suppressed serum TNFα level
same,TNFα Titer (S50) After 24 hrs.,[9]; LPS + 0.01 μg/ml,535
same,% inhibition of TNFα titer,[9]; LPS + 0.01 μg/ml,36%
same,TNFα Titer (S50) After 24 hrs.,[9]; LPS + 1 μg/ml,501
same,% inhibition of TNFα titer,[9]; LPS + 1 μg/ml,40%
same,TNFα Titer (S50) After 24 hrs.,[9]; LPS + 5 μg/ml,406
same,% inhibition of TNFα titer,[9]; LPS + 5 μg/ml,51%
same,TNFα Titer (S50) After 24 hrs.,[9]; LPS + 10 μg/ml,159
same,% inhibition of TNFα titer,[9]; LPS + 10 μg/ml,81%
same,Cherniluminescense peak,[8]; Zymosan + 4 μg/ml,1524
same,Inhibition % of ROI release,[8]; Zymosan + 4 μg/ml,83%
same,Cherniluminescense peak,[8]; Zymosan + 10 μg/ml,432
same,Inhibition % of ROI release,[8]; Zymosan + 10 μg/ml,95%
same,% inhibition of TNFα titer,[10]; LPS + 0.01 μg/ml,11%
same,TNFα Titer S50,[10]; LPS + 0.01 μg/ml,5818
same,% inhibition of TNFα titer,[10]; LPS + 0.1 μg/ml,45%
same,TNFα Titer S50,[10]; LPS + 0.1 μg/ml,357.6
same,% inhibition of TNFα titer,[10]; LPS + 1 μg/ml,63%
same,TNFα Titer S50,[10]; LPS + 1 μg/ml,2384
same,% inhibition of TNFα titer,[10]; LPS + 4 μg/ml,65%
same,TNFα Titer S50,[10]; LPS + 4 μg/ml,2300
same,% inhibition of TNFα titer,[10]; LPS + 10 μg/ml,91%
same,TNFα Titer S50,[10]; LPS + 10 μg/ml,615
same,% apoptosis,"[4]; 5 μg/ml, no irradiation",15%
same,% apoptosis,"[4]; 5 μg/ml, γ-irradiation 800 rad",25%
same,% apoptosis,"[4]; 10 μg/ml, no irradiation",27%
same,% apoptosis,"[4]; 10 μg/ml, γ-irradiation 800 rad",58%
same,programmed cell death (apoptosis),[4],high rate of programmed cell death
CCCCCCC(C)(C)c1cc(O)c2c(c1)OC(C)(C)[C@@H]1CC[C@@H](CO)C[C@@H]21 [[^3H]HU-243],Ki,CB1,0.045 ± 0.007 nM
